Test results taken from patent publication US7452884B2, “Methods for inhibiting angiogenesis” (Fox Chase Cancer Center, priority 2001, dated 2008).
Like-named read-outs stand apart in the source and are kept apart here.

How the values were obtained:
[1] = system: rat aortic ring explant cultures; settings: for inhibition of microvessel growth: day 8; for inhibition of microvessel growth relative to vehicle-treated control cultures: day 8 (peak of microvessel growth), serum-free EBM
[2] = system: PAEC-VEGF-Matrigel implants; settings: 250 mg/kg/dose p.o. QD for 6 days, nude mice, p<0.05
[3] = system: human umbilical vein endothelial cells (HUVECs); assay: Capillary tube formation by HUVECs on Matrigel in vitro; settings: for inhibition of complete capillary tube formation relative to vehicle-treated control cultures: 18 h incubation
[4] = system: SVR angiosarcoma xenografts

SMILES	inhibition of microvessel growth ([1]; 0.4 μM)	inhibition of microvessel growth ([1]; 4 μM)	inhibition of microvessel growth relative to vehicle-treated control cultures ([1]; 40 μM, p<0.05)	inhibition of microvessel growth relative to vehicle-treated control cultures ([1]; 100 μM, p<0.01)	reduction in neovascularization (hemoglobin content) relative to TW:PG vehicle-treated control mice [2]	inhibition of complete capillary tube formation relative to vehicle-treated control cultures ([3]; 4 μM)	inhibition of complete capillary tube formation relative to vehicle-treated control cultures ([3]; 40 μM, p<0.05)	inhibition of complete capillary tube formation relative to vehicle-treated control cultures ([3]; 100 μM, p<0.05)	cytotoxicity to human endothelial cells in culture ([3]; 4, 40 and 100 μM)	morbidity or mortality of treated mice ([4]; 250 mg/kg/dose p.o. QD for 10 days)	inhibition of tumor growth ([4]; 250 mg/kg/dose p.o. QD, as early as day 4 of dosing, p<0.005)	maximum inhibition of tumor volume relative to TW:PG vehicle-treated mice ([4]; 250 mg/kg/dose p.o. QD, day 10 of dosing, p<0.001)	maximum reduction in SVR tumor volume relative to vehicle-treated control mice ([4]; 30 mg/kg/dose s.c. Q2D×3, by day 10)
Cc1c(-c2cnccn2)ssc1=S [Oltipraz, 5-(2-pyrazinyl)-4-methyl-1,2-dithiol-3-thione]	not inhibitory	not inhibitory	50%	95%	42%	23%	62%	52%	absence of cytotoxicity	absence of apparent morbidity or mortality	significant inhibition of tumor growth	81%	
CO[C@@H]1[C@H](OC(=O)NC(=O)CCl)CC[C@]2(CO2)[C@H]1[C@@]1(C)O[C@@H]1CC=C(C)C [TNP470]													80%
